According to PubChem BioAssay (NCI):
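1) Cells in 96-well plates. 2) Compound, 48 h, 5 concentrations. 3) Linear interpolation between surrounding doses. 4) Unreached endpoint = highest concentration. Abbreviation: GI50, concentration required for 50% inhibition of growth. TGI is the concentration that stops growth completely.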

Legend:
Test in all cases: NCI tumour cell line growth inhibition, 48 h
[1] = tested on: P388 leukemia
[2] = tested on: XF 498 CNS
[3] = tested on: SN12K1 renal
[4] = tested on: P388/ADR leukemia
[5] = tested on: SR leukemia
[6] = tested on: PC-3 prostate
[7] = tested on: LXFL 529 NSCLC
[8] = tested on: RXF-631 renal

With `COC(=O)[C@]1(c2ccc(N(C)C)cc2OC)C[C@@H]2CCCN(CCc3c1[nH]c1ccccc31)C2` the TGI [1] was 36 µM, the TGI [2] was 34.1 µM and the TGI [3] was 34.6 µM. The TGI [4] was 47.1 µM.
With `CCCOP(=O)(OCCC)OC(C(F)(F)F)C(F)(F)F` the TGI [5] was greater than 100 µM.
In the case of `COC(=O)CNC(=O)CCC(C)[C@H]1CCC2C3C(C[C@H](OC(C)=O)[C@@]21C)[C@@]1(C)CCC2(C[C@H]1C[C@H]3OC(C)=O)OOC1(CC[C@]3(C)C4C[C@H](OC(C)=O)[C@@]5(C)C(CC[C@@H]5C(C)CCC(=O)NCC(=O)OC)C4[C@H](OC(C)=O)C[C@@H]3C1)OO2` (some centres not stated), the TGI [6] is reported as 8.69 µM.
`COc1cc2cc(C(=O)N3CC(CCl)c4ccc(N(C)C)cc43)[nH]c2c(OC)c1OC` (configuration not stated) was tested, and the TGI [6] was 0.979 µM.
`CN1Cc2cc(O)c(O)cc2C(O)C1` (configuration not stated) gave a TGI [5] greater than 100 µM and a TGI [6] greater than 100 µM.
`CCOc1ccc(C(C)c2cc3c(cc2OC)OCO3)cc1` (configuration not stated) was tested, and the TGI [5] was 0.442 µM, the TGI [2] was 0.823 µM and the TGI [7] was greater than 100 µM.
Work on `CC(C(=O)c1ccncc1)c1ccccn1` (configuration not stated) yielded a TGI [6] greater than 100 µM.
`S=c1nc(N/N=C/c2cccs2)c2cn[nH]c2[nH]1` showed a TGI [5] of 37.2 µM and a TGI [6] of 37.5 µM.
Work on `O=P(Nc1ccccc1)(Oc1ccccc1)N(CCCl)CCCl` (configuration not stated) yielded a TGI [5] greater than 100 µM and a TGI [8] greater than 100 µM.
`Cc1ccc(N=Nc2c(O)ccc3cc(S(=O)(=O)O)ccc23)cc1` was tested, and the TGI [6] was greater than 100 µM.
Work on `Cc1cc(OCCOCCC(F)(F)P(=O)(O)O)ccc1CCc1cnc2c(N)nc3cc(CCC(=O)O)ccc3c2c1` yielded a GI50 [5] greater than 100 µM, a TGI [5] greater than 100 µM and a GI50 [6] greater than 100 µM. The TGI [6] was greater than 100 µM.
`CCCCCCCCCCCCCC[n+]1ccc(C(N)=O)cc1` showed a GI50 [6] of 0.703 µM and a TGI [6] of 2.88 µM.
In the case of `COc1cc2c(cc1Oc1c(Oc3c(O)c(OC)cc4c3C(CC(C)C)N(C)CC4)c(OC)cc3c1C(CC(C)C)N(C)CC3)C(CC(C)C)N(C)CC2` (configuration not stated), the TGI [1] is reported as 3.62 µM, the TGI [3] is reported as 3.79 µM and the TGI [4] is reported as 3.71 µM.
With `C=CC(C)C1(CCCOCc2ccccc2)C(=S)N2CCC3(CC24CCCC14)OCCO3` (configuration not stated) the TGI [2] was 52.7 µM and the TGI [7] was greater than 100 µM.
Molecule `CNC(=O)SCC(NC(=O)CCC(N)C(=O)O)C(=O)NCC(=O)O` (configuration not stated) has a TGI [1] greater than 100 µM, a TGI [2] greater than 100 µM and a TGI [3] greater than 100 µM. It also gave a TGI [4] greater than 100 µM.
For `O=C(O)/C(=C\c1ccc(O)cc1)c1cccc2ccccc12`, the TGI [5] was greater than 100 µM and the TGI [6] was greater than 100 µM.
With `COC1=CC(=O)C=C(OC)C1=O` the TGI [1] was 1.25 µM, the TGI [2] was 6.34 µM and the TGI [3] was 18 µM. For the same molecule, the TGI [4] was 1.08 µM.
Molecule `COC1=C(C)C(=O)C2=C(C1=O)C1C3CC4=C(C(=O)C(OC)=C(C)C4=O)C(CNC(=O)C(C)O)N3C(C#N)C(C2)N1C` (configuration not stated) has a TGI [5] greater than 100 µM, a TGI [3] of less than 0.01 µM and a TGI [6] of 1.74 µM.
